Where “and” joins values, the source holds several entries; their conditions need not be identical. Equal values may be shown once. Read-outs that look alike come from different tables or passages of the source.
Experiments:
5-LOX = target: T1, 5-LOX (Homo sapiens, UniProt P09917); experiment: Inhibition assay with recombinant 5-LOX; format: biochemical; design: made in house; host or cells: Escherichia coli BL21; settings: 20 µM AA, 2 mM CaCl2; read-out: IC50 with recombinant human 5-LOX
T1 sequence (P09917 1-674): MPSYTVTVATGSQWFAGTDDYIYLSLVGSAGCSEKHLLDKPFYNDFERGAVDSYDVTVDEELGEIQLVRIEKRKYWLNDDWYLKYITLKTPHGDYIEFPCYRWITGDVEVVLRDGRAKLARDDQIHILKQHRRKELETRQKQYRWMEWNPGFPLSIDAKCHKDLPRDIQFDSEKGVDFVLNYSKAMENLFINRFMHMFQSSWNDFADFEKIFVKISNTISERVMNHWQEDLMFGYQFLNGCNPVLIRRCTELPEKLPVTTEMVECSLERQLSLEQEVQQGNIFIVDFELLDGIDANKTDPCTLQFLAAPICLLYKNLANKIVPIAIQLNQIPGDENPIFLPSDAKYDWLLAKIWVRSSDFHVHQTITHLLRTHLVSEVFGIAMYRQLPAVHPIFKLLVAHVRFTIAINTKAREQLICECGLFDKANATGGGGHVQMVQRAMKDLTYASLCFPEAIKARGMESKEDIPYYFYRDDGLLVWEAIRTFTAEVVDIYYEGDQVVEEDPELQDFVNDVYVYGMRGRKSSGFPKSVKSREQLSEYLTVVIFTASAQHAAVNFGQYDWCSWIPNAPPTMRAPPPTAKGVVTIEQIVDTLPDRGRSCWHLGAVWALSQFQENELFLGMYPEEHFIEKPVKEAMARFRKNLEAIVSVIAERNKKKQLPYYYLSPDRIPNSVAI
Protocol: Escherichia coli BL21 cells were transformed with the pT3-5-LO vector and human recombinant 5-LOX was expressed overnight at 30 °C as previously described. […] The supernatant was loaded on an ATP-agarose column and washed with 50 mM phosphate buffer (PB) containing 1 mM EDTA. Protein fractions were eluted with PB supplemented with 1 mM EDTA and 20 mM ATP. Aliquots of semi-purified 5-LOX were diluted with PBS containing 1 mM EDTA and used immediately in incubations.
Aliquots of 5-LOX (0.5 μg) were pre-incubated with test compounds or a vehicle (0.1%, v/v) for 10 min at 4 °C. […] The reaction was stopped after 10 min by addition of 1 vol of ice-cold methanol. Formed metabolites, i.e., LTB4, trans- and epi-trans-LTB4, and 5S-HETE, were analyzed with reverse-phase HPLC using a C18 RP Radial PAK column (Waters) as described previously.

LTA4H [1] = target: T2, LTA4H (Homo sapiens, UniProt P09960); experiment: Peptidase assay of LTA4H with pNa and AMC conjugates; format: biochemical; design: made in house; host or cells: Escherichia coli JM101; settings: for AC50: activation
T2 sequence (P09960 1-611): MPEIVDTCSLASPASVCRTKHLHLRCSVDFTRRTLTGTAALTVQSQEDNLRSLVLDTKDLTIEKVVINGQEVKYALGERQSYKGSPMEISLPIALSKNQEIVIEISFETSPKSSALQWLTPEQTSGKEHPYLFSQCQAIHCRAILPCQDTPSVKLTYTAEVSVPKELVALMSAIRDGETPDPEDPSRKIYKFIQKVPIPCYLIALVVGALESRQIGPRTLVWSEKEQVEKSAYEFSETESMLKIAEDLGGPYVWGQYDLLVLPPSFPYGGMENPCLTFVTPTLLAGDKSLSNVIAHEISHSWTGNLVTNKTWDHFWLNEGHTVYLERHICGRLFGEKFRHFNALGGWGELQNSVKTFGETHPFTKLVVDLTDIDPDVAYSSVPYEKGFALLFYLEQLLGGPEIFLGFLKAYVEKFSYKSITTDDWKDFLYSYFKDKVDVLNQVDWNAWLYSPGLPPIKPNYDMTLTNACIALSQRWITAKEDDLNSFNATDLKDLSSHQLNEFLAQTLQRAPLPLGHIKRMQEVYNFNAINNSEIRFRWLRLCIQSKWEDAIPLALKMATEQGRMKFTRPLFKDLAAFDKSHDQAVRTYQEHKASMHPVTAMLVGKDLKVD
Protocol: In addition, the aminopeptidase assay was performed with p-nitroanilide (pNa) and 7-amido-4-methylcoumarin (AMC) conjugates containing different N-terminal amino acids. Incubations were carried out with 1 μg LTA4H and 1 mM pNa substrates or 5 µM AMC substrates in 400 μL 10 mM Tris-HCl pH 7.8 containing 100 mM KCl at room temperature for 30 min. The absorbance of released pNa was measured after every 5 min at 405 nm using a TECAN Infinite M200 plate reader. The measurements with AMC derivatives were carried out using a black polystyrene 96-well plate and the fluorescence of released AMC at 360 nm/460 nm (ex/em) was recorded. Specific activities were calculated based on the standard curves of free pNA and AMC (Figure S10). The activation (AC50) or inhibition constants (IC50) were determined using the non-linear regression approach in the GraphPad Prism 9 program.

LTA4H [2] = target: T2, LTA4H; experiment: Thermal shift assay with differential scanning fluorimetry; format: binding; design: made in house; host or cells: Escherichia coli JM101
Protocol: DSF, also known as the thermal shift assay, was carried out in 25 mM Tris-HCl pH 7.8 containing 50 ng/µL LTA4H, 2X SYPRO Orange (Life Technologies, Carlsbad, CA, USA), 3% DMSO or 0–300 µM of an inhibitor. The assay was performed in a white 96-well Multiplate PCR Plate (Bio-Rad, Hercules, CA, USA) covered with the iCycler iQ Optical tape (Bio-Rad, Hercules, CA, USA). The total volume per well was 25 μL, consisting of 1 μL SYPRO Orange solution. Relative fluorescence intensities (RFU) were recorded with a C1000 Touch Thermal Cycler (Bio-Rad, Hercules, CA, USA) and a CFX-96 Real-Time System. […] The melting temperature (Tm) for each condition were obtained from the first derivative of melting curves and the affinity (Kd) and stability (Kb) values were calculated based on the Tm and concentration–response curves.

IC50 (5-LOX): 6700 nM and ~6000 nM
IC50 (LTA4H [1]; 5 µM L-Arg-AMC, read-out: IC50, peptidase activity with L-Arg-AMC): 330 ± 90 nM
IC50 (LTA4H [1]; 5 µM L-Pro-AMC, read-out: IC50, peptidase activity with L-Pro-AMC): 300 ± 70 nM
IC50 (LTA4H [1]; 1 mM L-Arg-pNa, read-out: IC50, peptidase activity with L-Arg-pNa): 360 ± 60 nM
IC50 (LTA4H [1]; 1 mM L-Lys-pNa, read-out: IC50, peptidase activity with L-Lys-pNa): 1060 ± 240 nM
AC50 (LTA4H [1]; 1 mM L-Ala-pNa, read-out: AC50, peptidase activity with L-Ala-pNa): 180 ± 40 nM
AC50 (LTA4H [1]; 1 mM L-Leu-pNa, read-out: AC50, peptidase activity with L-Leu-pNa): 480 ± 50 nM
AC50 (LTA4H [1]; 1 mM L-Val-pNa, read-out: AC50, peptidase activity with L-Val-pNa): 230 ± 20 nM
Specific activity of LTA4H with L-Ala-pNa in the presence of inhibitor (LTA4H [1]; substrate L-Ala-pNa, mean ± SEM, n = 3): 79.6 ± 7.6 µmol/µg/min
Specific activity of LTA4H with L-Arg-AMC in the presence of inhibitor (LTA4H [1]; substrate L-Arg-AMC, mean ± SEM, n = 3): 10.1 ± 0.1 µmol/µg/min
Specific activity of LTA4H with L-Arg-pNa in the presence of inhibitor (LTA4H [1]; substrate L-Arg-pNa, mean ± SEM, n = 3): 0.20 ± 0.03 µmol/µg/min
Specific activity of LTA4H with L-Leu-pNa in the presence of inhibitor (LTA4H [1]; substrate L-Leu-pNa, mean ± SEM, n = 3): 46.3 ± 1.7 µmol/µg/min
Specific activity of LTA4H with L-Pro-AMC in the presence of inhibitor (LTA4H [1]; substrate L-Pro-AMC, mean ± SEM, n = 3): 16.0 ± 0.2 µmol/µg/min
Specific activity of LTA4H with L-Pro-pNa in the presence of inhibitor (LTA4H [1]; substrate L-Pro-pNa, mean ± SEM, n = 3): 2.65 ± 0.12 µmol/µg/min
Specific activity of LTA4H with L-Val-pNa in the presence of inhibitor (LTA4H [1]; substrate L-Val-pNa, mean ± SEM, n = 3): 24.9 ± 0.8 µmol/µg/min
Tm of LTA4H upon the addition of inhibitor (LTA4H [2]; 0 to 200 µM inhibitor, increased from 57.5 °C without inhibitor): 61.2 °C
Kd (LTA4H [2]; from Tm concentration–response curves, read-out: Kd by differential scanning fluorimetry): 240 ± 10 nM
Compound: Nc1nc(-c2ccc(Cc3ccccc3)cc2)cs1 [ARM1, 4-(4-benzylphenyl) thiazol-2-amine, reference compound]

Source: PMC10145651, “Modulation of the 5-Lipoxygenase Pathway by Chalcogen-Containing Inhibitors of Leukotriene A4 Hydrolase” (International Journal of Molecular Sciences, 2023)
